Here are results for 3 compounds from publication PMC8802617 (Bioorganic & medicinal chemistry, 2018).

As usually defined, the EC50 is the concentration at which the effect is half-maximal. As usually defined, the Ki is the dissociation constant of the complex between target and ligand, obtained from inhibition or displacement.

Like-named read-outs stand apart in the source and are kept apart here. *1 amine or outer side, *2 acyl side, *3 side chain or, on linkers, in order; H or OH if unused. Where a SMILES comes first, the peptide text is derived from it. Bridges are numbered along the chain shown (N, C = ends). Roman numbers before positions name the chains, in order. [ ]: non-standard residue; d: D form. Piperazine(1,4-diyl) = C1CN([*:2])CCN1[*:1]; dPen = CC(C)(S)[C@@H](N)C(=O)O

Assay [1] concerns the target T1, MOR (Homo sapiens, UniProt P35372). As to the kind of experiment: Split luciferase cAMP assay, agonist mode, HEK cells stably expressing MOR. The class given is cell-based. (Changes in cAMP serve as a functional read-out for many G protein-coupled receptors.)
Assay [2] deals with T2, DOR (Homo sapiens, UniProt P41143). Description: Split luciferase cAMP assay, agonist mode, HEK cells stably expressing DOR. Type of assay: cell-based.
Assay [3] addresses T1, MOR. Type of assay: binding. The conditions noted are these: membranes from transient HEK cells.
The target of assay [4] is T2, DOR. The class given is binding. The conditions noted are these: membranes from transient HEK cells.
The target of assay [5] is T3, KOR (Homo sapiens, UniProt P41145). Description: cell-based.
Assay [6] concerns the target T3, KOR. As to the kind of experiment: biochemical. The class given is binding.
In assay [7] the target is T3, KOR. The conditions noted are these: read-out: KOR Ki, cited from earlier work.
Assay [8] has as its target T1, MOR. The conditions noted are these: read-out: MOR Ki; literature value ref 16; cited from earlier work.
For assay [9], the target named is T2, DOR. The conditions noted are these: read-out: DOR Ki; literature value ref 16; cited from earlier work.

T1 sequence (P35372 whole entry): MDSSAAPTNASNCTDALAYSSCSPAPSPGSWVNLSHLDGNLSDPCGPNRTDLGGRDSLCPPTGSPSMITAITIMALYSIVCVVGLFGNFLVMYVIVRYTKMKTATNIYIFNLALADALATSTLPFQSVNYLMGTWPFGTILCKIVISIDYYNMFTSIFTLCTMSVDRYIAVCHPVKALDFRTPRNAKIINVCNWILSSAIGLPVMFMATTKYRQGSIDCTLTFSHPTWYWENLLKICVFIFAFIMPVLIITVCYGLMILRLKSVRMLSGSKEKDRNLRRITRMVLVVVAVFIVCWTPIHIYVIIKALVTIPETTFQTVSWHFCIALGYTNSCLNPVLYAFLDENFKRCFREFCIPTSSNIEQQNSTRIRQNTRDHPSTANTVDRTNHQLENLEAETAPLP
T2 sequence (P41143 whole entry): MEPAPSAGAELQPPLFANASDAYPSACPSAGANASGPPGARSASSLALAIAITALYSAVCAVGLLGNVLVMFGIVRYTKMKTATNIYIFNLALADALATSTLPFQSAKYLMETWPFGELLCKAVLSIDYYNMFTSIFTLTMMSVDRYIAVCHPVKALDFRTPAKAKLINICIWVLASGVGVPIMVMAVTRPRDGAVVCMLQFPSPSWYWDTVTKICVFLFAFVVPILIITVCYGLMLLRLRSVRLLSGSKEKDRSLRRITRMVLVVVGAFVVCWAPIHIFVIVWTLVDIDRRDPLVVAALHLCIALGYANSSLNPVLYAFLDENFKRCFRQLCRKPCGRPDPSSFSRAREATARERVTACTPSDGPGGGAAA
T3 sequence (P41145 whole entry): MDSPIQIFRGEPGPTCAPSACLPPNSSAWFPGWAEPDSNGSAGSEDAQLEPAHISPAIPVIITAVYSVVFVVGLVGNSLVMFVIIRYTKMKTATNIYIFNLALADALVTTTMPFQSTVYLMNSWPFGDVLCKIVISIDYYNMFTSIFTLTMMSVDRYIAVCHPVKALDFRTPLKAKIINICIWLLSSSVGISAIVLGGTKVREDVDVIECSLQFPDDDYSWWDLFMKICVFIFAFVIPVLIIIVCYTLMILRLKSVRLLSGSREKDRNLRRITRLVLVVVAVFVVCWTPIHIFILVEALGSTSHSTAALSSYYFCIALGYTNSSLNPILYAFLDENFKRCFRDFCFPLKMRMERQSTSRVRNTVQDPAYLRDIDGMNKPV

As for `CC1(C)SSC(C)(C)[C@@H](NC(=O)[C@@H](N)Cc2ccc(O)cc2)C(=O)NCC(=O)N[C@@H](Cc2ccccc2)C(=O)N2CCN(CC2)C(=O)[C@H](Cc2ccccc2)NC(=O)CNC(=O)[C@@H]1NC(=O)[C@@H](N)Cc1ccc(O)cc1` [ligand 3, c^2,2′(Tyr-DPen-Gly-Phe)2-piperazine] (I: H-Y[dPen]GF / II: H-Y[dPen]GF; disulfide I:2-II:2; linker I:C-II:C via Piperazine(1,4-diyl)), the EC50 on MOR [1] (MOR EC50, agonist mode) is 191 nM; on MOR [1] (MOR pEC50, agonist mode), 191 nM; at DOR [2] (DOR EC50, agonist mode), 269 nM; at DOR [2] (DOR pEC50, agonist mode), 269 nM; at KOR [5] (KOR EC50), 269 nM; at KOR [5] (KOR pEC50), 269 nM. The Ki on MOR [3] (MOR [3H]DAMGO Ki) was 2.9 nM; at MOR [3] (MOR [3H]DAMGO pKi), 2.88 nM; on DOR [4] (DOR [3H]DADLE Ki), 1.9 nM; at DOR [4] (DOR [3H]DADLE pKi), 2 nM; at KOR [6] (KOR [3H]U69593 Ki) it was 5.6 nM; on KOR [6] (KOR [3H]U69593 pKi), 5.62 nM.

Regarding Biphalin, in the assay with KOR [7] (literature value ref 6), the inhibitory constant (Ki) was 270 ± 15 nM.

For the compound “c^2,2′(Tyr-DPen-Gly-Phe-NH-)2 (YCGF) [compound 6]”, the Ki in the assay with MOR [8] is 5.2 ± 0.5 nM; with DOR [9], 1.9 ± 0.2 nM; with KOR [7] (literature value ref 16), 257 ± 25 nM.
